Target: T1, PI3Kδ (Homo sapiens, UniProt O00329)
T1 construct: The protein is full length and co-expressed with untagged PIK3R1; GST; purchased Invitrogen PV5274
Test: PI3Kδ inhibition, modified PIK3CD Adapta TR-FRET assay
Assay type: biochemical
Conditions: recombinant GST-tagged full length PIK3CD co-expressed with PIK3R1 (p85α); 2 μM ATP, 50 μM PIP2; read-out: PI3Kδ Inhibition (pIC50) (converted)
In short: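 Inhibition was derived from % conversion against positive and negative controls, with ADP read by Adapta Eu-antibody/tracer TR-FRET. Room-temperature reactions used GST-PIK3CD/p85α in HEPES pH 7.5 buffer (MgCl2, EGTA, NaCl, CHAPS, fresh DTT), 1% DMSO final and 12 concentrations. They were initiated by adding 2 μM ATP/50 μM PIP2 solution.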

T1 sequence (O00329 whole entry): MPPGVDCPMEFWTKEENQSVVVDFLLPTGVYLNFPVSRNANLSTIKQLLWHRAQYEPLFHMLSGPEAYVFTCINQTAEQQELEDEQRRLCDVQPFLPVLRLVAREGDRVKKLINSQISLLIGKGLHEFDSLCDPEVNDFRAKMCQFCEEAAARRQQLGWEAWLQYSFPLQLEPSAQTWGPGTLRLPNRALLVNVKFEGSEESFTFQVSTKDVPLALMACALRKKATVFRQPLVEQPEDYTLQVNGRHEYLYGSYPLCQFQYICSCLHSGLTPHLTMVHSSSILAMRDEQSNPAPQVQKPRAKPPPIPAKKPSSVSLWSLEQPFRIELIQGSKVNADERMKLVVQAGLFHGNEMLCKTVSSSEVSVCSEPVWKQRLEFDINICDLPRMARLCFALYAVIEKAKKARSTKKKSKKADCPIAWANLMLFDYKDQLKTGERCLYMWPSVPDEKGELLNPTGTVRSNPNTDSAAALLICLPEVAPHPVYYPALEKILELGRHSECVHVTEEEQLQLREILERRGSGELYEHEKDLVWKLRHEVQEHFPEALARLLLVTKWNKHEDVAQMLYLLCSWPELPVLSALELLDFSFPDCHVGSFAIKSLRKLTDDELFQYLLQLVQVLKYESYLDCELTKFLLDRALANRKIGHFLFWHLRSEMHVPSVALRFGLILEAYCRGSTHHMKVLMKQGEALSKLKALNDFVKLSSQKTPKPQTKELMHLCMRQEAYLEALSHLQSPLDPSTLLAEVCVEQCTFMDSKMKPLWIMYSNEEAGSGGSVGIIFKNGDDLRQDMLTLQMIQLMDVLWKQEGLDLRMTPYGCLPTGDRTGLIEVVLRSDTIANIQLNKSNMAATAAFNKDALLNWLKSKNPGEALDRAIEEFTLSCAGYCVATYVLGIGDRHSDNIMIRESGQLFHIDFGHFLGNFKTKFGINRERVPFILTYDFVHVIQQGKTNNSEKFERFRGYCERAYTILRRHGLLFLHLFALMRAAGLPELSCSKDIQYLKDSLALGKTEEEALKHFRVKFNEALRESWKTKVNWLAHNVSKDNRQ
T1 sequence (P27986 whole entry partner): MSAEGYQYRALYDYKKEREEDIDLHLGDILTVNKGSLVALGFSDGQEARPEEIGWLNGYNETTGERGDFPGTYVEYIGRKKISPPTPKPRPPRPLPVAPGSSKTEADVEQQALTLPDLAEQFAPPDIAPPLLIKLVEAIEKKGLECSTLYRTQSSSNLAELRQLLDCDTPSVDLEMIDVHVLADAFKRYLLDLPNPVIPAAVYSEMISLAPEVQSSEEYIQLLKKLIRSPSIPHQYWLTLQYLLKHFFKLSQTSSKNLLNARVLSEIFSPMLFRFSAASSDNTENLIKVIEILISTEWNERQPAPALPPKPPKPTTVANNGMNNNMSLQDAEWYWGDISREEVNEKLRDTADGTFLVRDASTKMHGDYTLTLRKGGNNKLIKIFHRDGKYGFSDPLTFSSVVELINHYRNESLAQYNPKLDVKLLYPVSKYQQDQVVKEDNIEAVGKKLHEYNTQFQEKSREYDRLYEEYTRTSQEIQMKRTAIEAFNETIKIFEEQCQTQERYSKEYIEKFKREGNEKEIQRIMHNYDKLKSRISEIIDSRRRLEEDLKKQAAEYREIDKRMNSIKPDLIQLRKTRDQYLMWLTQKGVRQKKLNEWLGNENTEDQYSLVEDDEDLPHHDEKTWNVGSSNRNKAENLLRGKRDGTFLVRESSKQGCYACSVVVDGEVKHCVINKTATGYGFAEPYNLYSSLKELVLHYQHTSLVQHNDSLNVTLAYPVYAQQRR

| Compound | IC50 |
| --- | --- |
| O=C(CN1C[C@@H]2COCCN2c2nc(-c3cncc4[nH]ccc34)ncc21)NCC1CCOCC1 [Example 174, (R)-2-(2-(1H-pyrrolo[2,3-c]pyridin-4-yl)-6a,7,9,10-tetrahydro-[1,4]oxazino[3,4-h]pteridin-5(6H)-yl)-N-((tetrahydro-2H-pyran-4-yl)methyl)acetamide] | 7.94 nM |
| CC(C)Cc1nnc(C(C)N2C[C@@H]3COCCN3c3nc(-c4cccc5[nH]ccc45)ncc32)o1 (stereo partly drawn) [Example 175, (6aR)-2-(1H-indol-4-yl)-5-(1-(5-isobutyl-1,3,4-oxadiazol-2-yl)ethyl)-5,6,6a,7,9,10-hexahydro-[1,4]oxazino[3,4-h]pteridine] | 1.58 nM |
| CC(C)Cc1nnc(C(C)N2C[C@@H]3COCCN3c3nc(-c4cccc(CO)c4)ncc32)o1 (some centres unmarked) [Example 176] | 1.58 nM |
| CCc1nnc(C(C)N2C[C@@H]3COCCN3c3nc(-c4cccc(CO)c4)ncc32)o1 (stereo partly drawn) [Example 177, (3-((6aR)-5-(1-(5-ethyl-1,3,4-oxadiazol-2-yl)ethyl)-5,6,6a,7,9,10-hexahydro-[1,4]oxazino[3,4-h]pteridin-2-yl)phenyl)methanol] | 2 nM |
| CCc1nnc(C(C)N2C[C@@H]3COCCN3c3nc(-c4cccc5[nH]ccc45)ncc32)o1 (stereo partly drawn) [Example 178, (6aR)-5-(1-(5-ethyl-1,3,4-oxadiazol-2-yl)ethyl)-2-(1H-indol-4-yl)-5,6,6a,7,9,10-hexahydro-[1,4]oxazino[3,4-h]pteridine] | 1.58 nM |
| CCc1nnc(CN2C[C@@H]3COCCN3c3nc(-c4cc(CO)ccc4F)ncc32)o1 [Example 179, (R)-(3-(5-((5-ethyl-1,3,4-oxadiazol-2-yl)methyl)-5,6,6a,7,9,10-hexahydro-[1,4]oxazino[3,4-h]pteridin-2-yl)-4-fluorophenyl)methanol] | 50.1 nM |
| CCc1nnc(CN2C[C@@H]3COCCN3c3nc(-n4ccc5cnccc54)ncc32)o1 [Example 180, (R)-5-((5-ethyl-1,3,4-oxadiazol-2-yl)methyl)-2-(1H-pyrrolo[3,2-c]pyridin-1-yl)-5,6,6a,7,9,10-hexahydro-[1,4]oxazino[3,4-h]pteridine] | 398 nM |
| Cn1cc(CN2C[C@@H]3COCCN3c3nc(-c4cccc5[nH]ccc45)ncc32)cn1 [Example 182, (R)-2-(1H-indol-4-yl)-5-((1-methyl-1H-pyrazol-4-yl)methyl)-5,6,6a,7,9,10-hexahydro-[1,4]oxazino[3,4-h]pteridine] | 15.8 nM |
| c1cc(-c2ncc3c(n2)N2CCOC[C@H]2CN3Cc2cnco2)c2cc[nH]c2c1 [Example 185, (R)-2-(1H-indol-4-yl)-5-(oxazol-5-ylmethyl)-5,6,6a,7,9,10-hexahydro-[1,4]oxazino[3,4-h]pteridine] | 10 nM |
| OC1CCC(N2C[C@@H]3COCCN3c3nc(-c4cccc5[nH]ccc45)ncc32)CC1 (stereo partly drawn) [Example 189, (R)-4-(2-(1H-indol-4-yl)-6a,7,9,10-tetrahydro-[1,4]oxazino[3,4-h]pteridin-5(6H)-yl)cyclohexanol] | 7.94 nM |
| c1cc(-c2ncc3c(n2)N2CCOC[C@H]2CN3C2CCOCC2)c2cc[nH]c2c1 [Example 192, (R)-2-(1H-indol-4-yl)-5-(tetrahydro-2H-pyran-4-yl)-5,6,6a,7,9,10-hexahydro-[1,4]oxazino[3,4-h]pteridine] | 3.16 nM |
| c1cc(-c2ncc3c(n2)N2CCOC[C@H]2CN3CCC2OCCO2)c2cc[nH]c2c1 [Example 194, (R)-5-(2-(1,3-dioxolan-2-yl)ethyl)-2-(1H-indol-4-yl)-5,6,6a,7,9,10-hexahydro-[1,4]oxazino[3,4-h]pteridine] | 3.16 nM |
| COC(=O)CCCN1C[C@@H]2COCCN2c2nc(-c3cccc4[nH]ccc34)ncc21 [Example 195, (R)-methyl 4-(2-(1H-indol-4-yl)-6a,7,9,10-tetrahydro-[1,4]oxazino[3,4-h]pteridin-5(6H)-yl)butanoate] | 3.16 nM |
| O=C(O)CCCN1C[C@@H]2COCCN2c2nc(-c3cccc4[nH]ccc34)ncc21 [Example 196, (R)-4-(2-(1H-indol-4-yl)-6a,7,9,10-tetrahydro-[1,4]oxazino[3,4-h]pteridin-5(6H)-yl)butanoic acid] | 6.31 nM |
| N[C@H]1CC[C@H](CN2C[C@@H]3COCCN3c3nc(-c4cccc5[nH]ccc45)ncc32)CC1 [Example 197] | 3160 nM |

Further lines, results first:

| IC50 | Compound |
| --- | --- |
| 79.4 nM | c1ccc(N2CC3COCCN3c3nc(-c4cccc5[nH]ccc45)ncc32)cc1 (centres unmarked) [Example 181, 2-(1H-indol-4-yl)-5-phenyl-5,6,6a,7,9,10-hexahydro-[1,4]oxazino[3,4-h]pteridine] |
| 398 nM | CCc1cccc(N2C[C@@H]3COCCN3c3nc(-c4cccc5[nH]ccc45)ncc32)c1 [Example 183, (R)-5-(3-ethylphenyl)-2-(1H-indol-4-yl)-5,6,6a,7,9,10-hexahydro-[1,4]oxazino[3,4-h]pteridine] |
| 398 nM | CCc1ccccc1N1C[C@@H]2COCCN2c2nc(-c3cccc4[nH]ccc34)ncc21 [Example 184, (R)-5-(2-ethyl-phenyl)-2-(1H-indol-4-yl)-5,6,6a,7,9,10-hexahydro-[1,4]oxazino[3,4-h]pteridine] |
| 50.1 nM | N#Cc1ccccc1N1C[C@@H]2COCCN2c2nc(-c3cccc4[nH]ccc34)ncc21 [Example 186, (R)-2-(2-(1H-indol-4-yl)-6a,7,9,10-tetrahydro-[1,4]oxazino[3,4-h]pteridin-5(6H)-yl)benzonitrile] |
| 126 nM | Cc1ccccc1N1C[C@@H]2COCCN2c2nc(-c3cccc4[nH]ccc34)ncc21 [Example 187, (R)-2-(1H-indol-4-yl)-5-(o-tolyl)-5,6,6a,7,9,10-hexahydro-[1,4]oxazino[3,4-h]pteridine] |
| 39.8 nM | CCc1cc(CN2C[C@@H]3COCCN3c3nc(-c4cccc5[nH]ccc45)ncc32)on1 [Example 188, (R)-5-((3-ethylisoxazol-5-yl)methyl)-2-(1H-indol-4-yl)-5,6,6a,7,9,10-hexahydro-[1,4]oxazino[3,4-h]pteridine] |
| 25.1 nM | CCOC(=O)c1cccc(N2C[C@@H]3COCCN3c3nc(-c4cccc5[nH]ccc45)ncc32)c1 [Example 190, (R)-ethyl 3-(2-(1H-indol-4-yl)-6a,7,9,10-tetrahydro-[1,4]oxazino[3,4-h]pteridin-5(6H)-yl)benzoate] |
| 3.16 nM | CS(=O)(=O)c1cccc(N2C[C@@H]3COCCN3c3nc(-c4cccc5[nH]ccc45)ncc32)c1 [Example 191, (R)-2-(1H-indol-4-yl)-5-(3-(methylsulfonyl)phenyl)-5,6,6a,7,9,10-hexahydro-[1,4]oxazino[3,4-h]pteridine] |
| 794 nM | c1cc(-c2ncc3c(n2)N2CCOC[C@H]2CN3c2cccc3[nH]ccc23)c2cc[nH]c2c1 [Example 193, (R)-2,5-di(1H-indol-4-yl)-5,6,6a,7,9,10-hexahydro-[1,4]oxazino[3,4-h]pteridine] |
| 15.8 nM | CCOC(=O)c1cncc(N2C[C@@H]3COCCN3c3nc(-c4cccc5[nH]ccc45)ncc32)c1 [Example 198, (R)-ethyl 5-(2-(1H-indol-4-yl)-6a,7,9,10-tetrahydro-[1,4]oxazino[3,4-h]pteridin-5(6H)-yl)nicotinate] |
| 1000 nM | COC(=O)c1cncc(N2C[C@@H]3COCCN3c3nc(-c4cccc5[nH]ccc45)ncc32)c1 [Example 199, (R)-methyl 5-(2-(1H-indol-4-yl)-6a,7,9,10-tetrahydro-[1,4]oxazino[3,4-h]pteridin-5(6H)-yl)nicotinate] |

Source: patent US8791107B2, “N-substituted oxazinopteridines and oxazinopteridinones” (Takeda Pharmaceutical Company Limited, priority 2011, dated 2014)
